Where two headings read alike, the source gives them in different places. A value given as a limit tells only on which side of the number the result lay.

The test addresses T1, SUMO-2 (Homo sapiens, UniProt P55854).
T1 construct: gene SUMO3; recombinant, untagged as far as told, pET11, E. coli (NMR, 15N-labelled); for titrations single Cys labelled with MFM probe
As to the kind of experiment: fluorescence titration of MFM-labelled protein with SUVs, global fit. It counts as binding.

Where [1] appears, read: SUVs POPC:POPS:PI 85:10:5, too weak to be determined, bound set by POPS, acyl chains not given, MFM-labelled protein, 25 mM Na-HEPES, 100 mM KCl, pH 7.26, room temperature.

T1 sequence (P55854 1-92): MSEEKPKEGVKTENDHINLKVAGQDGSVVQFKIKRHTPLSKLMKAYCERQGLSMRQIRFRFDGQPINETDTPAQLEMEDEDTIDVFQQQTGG

As a reminder, the Kd is the constant that tells how readily two partners part at equilibrium. Read a low Kd as a tighter complex. On to `CCCCCCCC/C=C\CCCCCCCC(=O)O[C@H](COC(=O)CCCCCCCCCCCCCCC)COP(=O)([O-])OCC[N+](C)(C)C` [POPC, 1-palmitoyl,2-oleoyl-sn-glycero-3-phosphocholine], for which the Kd amounted to 180 ± 42 µM. As to PI(3)P, the Kd (lipid in SUVs POPC:POPS:PI 85:10:5, per-lipid Kd from global fit, includes binding stoichiometry, acyl chains not given, MFM-labelled protein, 25 mM Na-HEPES, 100 mM KCl, pH 7.26, room temperature) was ~4 µM. Consider PI(4,5)P2, for which, under setting [1], the dissociation constant (Kd) was > 7 µM.

With PI(3,5)P2, under setting [1], the Kd was > 7 µM. Take PI(5)P: under setting [1], the Kd was > 7 µM.
